Laboratory results published in paper PMC4031276 (Molecular pharmaceutics, 2013).
Where two headings read alike, the source gives them in different places. Marks after values point to notes of the source that are not given here.

How the values were obtained:
hASBT [1] = target: T1, hASBT (Homo sapiens, UniProt Q12908); settings: native glycine conjugates, for comparison; cited from earlier work
T1 sequence (Q12908 1-348): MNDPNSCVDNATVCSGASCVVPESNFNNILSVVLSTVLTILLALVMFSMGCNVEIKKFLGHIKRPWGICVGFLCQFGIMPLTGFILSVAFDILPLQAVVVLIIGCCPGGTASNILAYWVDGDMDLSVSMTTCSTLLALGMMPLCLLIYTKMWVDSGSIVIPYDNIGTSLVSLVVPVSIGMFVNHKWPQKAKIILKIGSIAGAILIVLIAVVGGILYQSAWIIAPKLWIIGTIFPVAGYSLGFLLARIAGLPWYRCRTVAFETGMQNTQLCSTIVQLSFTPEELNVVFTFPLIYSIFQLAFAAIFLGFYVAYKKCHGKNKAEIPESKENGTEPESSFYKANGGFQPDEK

hASBT-MDCK monolayer [2] = settings: passive permeability of native glycine conjugates, for comparison; cited from earlier work
hASBT [3] = target: T1, hASBT; settings: read-out: Ki (μM ±SEM); glycine conjugates of native bile acids, provided for comparison; cited from earlier work
hASBT [4] = target: T1, hASBT; experiment: hASBT-mediated active uptake into hASBT-MDCK monolayers; format: cell-based; settings: for Kt fold higher than Ki: Kt vs Ki; for Kt (μM ±SEM): Michaelis-Menten transport constant, gly-iBA 1–200 μM, 10 min, 37 °C; for fold lower Jmax than corresponding native BA: TCA-normalized Jmax; for Relative Jmax (% TCA Jmax ±SEM): gly-iBAs, normalised to TCA Jmax
hASBT-MDCK monolayer [5] = settings: for Pp (cm/s ± SEM x 10^6): passive permeability of gly-iBAs, sodium-free buffer
hASBT [6] = target: T1, hASBT; experiment: cis-inhibition of taurocholate; settings: for fold weaker inhibitory potency (Ki) than corresponding native BA: 3-hydroxyl epimerization (α to β)
[7] = maximum substrate flux, mean ± SEM
[8] = read-out: Ki (μM ±SEM), glycine conjugates of iso-bile acids, TCA 2.5 μM, 10 min, 37 °C, pH 6.8, mean (SEM)

C[C@H](CCC(=O)NCC(=O)O)[C@H]1CC[C@H]2[C@@H]3[C@H](O)C[C@@H]4C[C@H](O)CC[C@]4(C)[C@H]3C[C@H](O)[C@]12C [Gly-CA]
Relative Jmax (% TCA Jmax ±SEM) (hASBT [1]): 152 (24) % TCA Jmax
Pp (cm/s ± SEM x 10^6) (hASBT-MDCK monolayer [2]): 0.220 (0.157) cm/s x 10^6
Ki (hASBT [3]): 7.53 µM

C[C@H](CCC(=O)NCC(=O)O)[C@H]1CC[C@H]2[C@@H]3[C@H](O)C[C@@H]4C[C@H](O)CC[C@]4(C)[C@H]3CC[C@]12C [Gly-CDCA]
Relative Jmax (% TCA Jmax ±SEM) (hASBT [1]): 432 (58) % TCA Jmax
Pp (cm/s ± SEM x 10^6) (hASBT-MDCK monolayer [2]): 0.414 (0.201) cm/s x 10^6
Ki (hASBT [3]): 0.992 µM

C[C@H](CCC(=O)NCC(=O)O)[C@H]1CC[C@H]2[C@@H]3CC[C@@H]4C[C@H](O)CC[C@]4(C)[C@H]3C[C@H](O)[C@]12C [Gly-DCA]
Relative Jmax (% TCA Jmax ±SEM) (hASBT [1]): 349 (47) % TCA Jmax
Pp (cm/s ± SEM x 10^6) (hASBT-MDCK monolayer [2]): 0.520 (0.162) cm/s x 10^6
Ki (hASBT [3]): 3.22 µM

C[C@H](CCC(=O)NCC(=O)O)[C@H]1CC[C@H]2[C@@H]3CC[C@@H]4C[C@H](O)CC[C@]4(C)[C@H]3CC[C@]12C [Gly-LCA]
Relative Jmax (% TCA Jmax ±SEM) (hASBT [1]): 405 (64) % TCA Jmax
Pp (cm/s ± SEM x 10^6) (hASBT-MDCK monolayer [2]): 0.865 (0.780) cm/s x 10^6
Ki (hASBT [3]): 0.427 µM

C[C@H](CCC(=O)NCC(=O)O)[C@H]1CC[C@H]2[C@@H]3[C@@H](O)C[C@@H]4C[C@H](O)CC[C@]4(C)[C@H]3CC[C@]12C [Gly-UDCA]
Relative Jmax (% TCA Jmax ±SEM) (hASBT [1]): 226 (36) % TCA Jmax
Pp (cm/s ± SEM x 10^6) (hASBT-MDCK monolayer [2]): 1.01 (0.13) cm/s x 10^6
Ki (hASBT [3]): 3.41 µM

C[C@H](CCC(=O)NCCS(=O)(=O)O)[C@H]1CC[C@H]2[C@@H]3[C@H](O)C[C@@H]4C[C@H](O)CC[C@]4(C)[C@H]3C[C@H](O)[C@]12C [TCA, Taurocholic acid, reference compound]
Absolute Jmax (hASBT [4]): c Absolute Jmax (pmol/cm^2/s) for each gly-iBA were 0.017 ± 0.006 (gly-iLCA), 0.065 ± 0.004 (gly-iCDCA), 0.010 ± 0.003 (gly-iDCA), 0.038 ± 0.006 (gly-iUDCA), and 0.166 ± 0.024 (gly-iCA) respectively. TCA Pp and Jmax were 1.56 x 10^−6 cm/s and 0.271 ± 0.020 pmol/cm^2/s, respectively.

C[C@H](CCC(=O)NCC(=O)O)[C@H]1CC[C@H]2[C@@H]3[C@H](O)C[C@@H]4C[C@@H](O)CC[C@]4(C)[C@H]3C[C@H](O)[C@]12C [gly-iCA, 3β,7α, 12α-trihydroxy-5β-cholanic acid glycine amide]
Kt fold higher than Ki (hASBT [4]): about 10 fold
Kt (μM ±SEM) (hASBT [4]): 163 (37) μM
fold lower Jmax than corresponding native BA (hASBT [4]): 3 fold
Relative Jmax (% TCA Jmax ±SEM) (hASBT [4]): 61.2 (9.9) % TCA Jmax
Absolute Jmax (hASBT [4]; [7]): 0.166 ± 0.024 pmol/cm^2/s
Pp (cm/s ± SEM x 10^6) (hASBT-MDCK monolayer [5]): 0.740 (0.120) cm/s x 10^6
Ki (hASBT [6]; [8]): 23.3 µM

C[C@H](CCC(=O)NCC(=O)O)[C@H]1CC[C@H]2[C@@H]3[C@H](O)C[C@@H]4C[C@@H](O)CC[C@]4(C)[C@H]3CC[C@]12C [gly-iCDCA, 3β, 7α-dihydroxy-5β-cholanic acid glycine amide]
Kt fold higher than Ki (hASBT [4]): about 10 fold
Kt (μM ±SEM) (hASBT [4]): 59.5 ± 8.8 µM
fold lower Jmax than corresponding native BA (hASBT [4]): 18 fold
Relative Jmax (% TCA Jmax ±SEM) (hASBT [4]): 23.9 (2.3) % TCA Jmax
Absolute Jmax (hASBT [4]; [7]): 0.065 ± 0.004 pmol/cm^2/s
fold weaker transport affinity (Kt) than native counterpart (hASBT [4]; vs gly-CDCA): 90 fold
Pp (cm/s ± SEM x 10^6) (hASBT-MDCK monolayer [5]): 0.058 (0.07) cm/s x 10^6
Ki (hASBT [6]; [8]): 4.53 µM

C[C@H](CCC(=O)NCC(=O)O)[C@H]1CC[C@H]2[C@@H]3CC[C@@H]4C[C@@H](O)CC[C@]4(C)[C@H]3C[C@H](O)[C@]12C [gly-iDCA, 3β, 12α-dihydroxy-5β-cholanic acid glycine amide]
Kt (μM ±SEM) (hASBT [4]): 149 (75) ^ns μM
Relative Jmax (% TCA Jmax ±SEM) (hASBT [4]): 3.68 (1.14) ^e % TCA Jmax
Absolute Jmax (hASBT [4]; [7]): 0.010 ± 0.003 pmol/cm^2/s
Pp (cm/s ± SEM x 10^6) (hASBT-MDCK monolayer [5]): 0.730 (0.020) cm/s x 10^6
Ki (hASBT [6]; [8]): 12.4 µM

C[C@H](CCC(=O)NCC(=O)O)[C@H]1CC[C@H]2[C@@H]3CC[C@@H]4C[C@@H](O)CC[C@]4(C)[C@H]3CC[C@]12C [gly-iLCA, 3β-hydroxy-5β-cholanic acid glycine amide]
Estimate for Kt (hASBT [4]; estimate, not determinable due to high passive permeability): 6.82 (4.98) μM
Absolute Jmax (hASBT [4]; [7]): 0.017 ± 0.006 pmol/cm^2/s
Pp (cm/s ± SEM x 10^6) (hASBT-MDCK monolayer [5]): 16.6 (0.8) cm/s x 10^6
Pp fold that of native counterpart (hASBT-MDCK monolayer [5]; vs gly-LCA): 20 fold
fold weaker inhibitory potency (Ki) than corresponding native BA (hASBT [6]): 12 fold
Ki (hASBT [6]; [8]): 5.07 µM

C[C@H](CCC(=O)NCC(=O)O)[C@H]1CC[C@H]2[C@@H]3[C@@H](O)C[C@@H]4C[C@@H](O)CC[C@]4(C)[C@H]3CC[C@]12C [gly-iUDCA, 3β,7β-dihydroxy-5β-cholanic acid glycine amide]
Kt fold higher than Ki (hASBT [4]): about 10 fold
Kt (μM ±SEM) (hASBT [4]): 75.3 (22.1) μM
fold lower Jmax than corresponding native BA (hASBT [4]): 16 fold
Relative Jmax (% TCA Jmax ±SEM) (hASBT [4]): 14.0 (2.4) % TCA Jmax
Absolute Jmax (hASBT [4]; [7]): 0.038 ± 0.006 pmol/cm^2/s
Pp (cm/s ± SEM x 10^6) (hASBT-MDCK monolayer [5]): 0.690 (0.090) cm/s x 10^6
Ki (hASBT [6]; [8]): 7.66 µM

C[C@H](CCC(=O)O)[C@H]1CC[C@H]2[C@@H]3[C@H](O)C[C@@H]4C[C@@H](O)CC[C@]4(C)[C@H]3CC[C@]12C [iCDCA, 3β, 7α-dihydroxy-5β-cholanic acid]
Ki (hASBT [6]): 11.8 µM
fold weaker inhibitory potency (Ki) than corresponding native BA (hASBT [6]): 6 fold
fold more potent (Ki) than iUDCA (hASBT [6]; 7α-hydroxyl vs 7β-epimer): 2 fold

C[C@H](CCC(=O)O)[C@H]1CC[C@H]2[C@@H]3CC[C@@H]4C[C@@H](O)CC[C@]4(C)[C@H]3C[C@H](O)[C@]12C [iDCA, 3β, 12α-dihydroxy-5β-cholanic acid]
Ki (hASBT [6]): 11.4 µM

C[C@H](CCC(=O)O)[C@H]1CC[C@H]2[C@@H]3CC[C@@H]4C[C@@H](O)CC[C@]4(C)[C@H]3CC[C@]12C [iLCA, 3β-hydroxy-5β-cholanic acid]
Ki (hASBT [6]): 5.36 µM

C[C@H](CCC(=O)O)[C@H]1CC[C@H]2[C@@H]3[C@@H](O)C[C@@H]4C[C@@H](O)CC[C@]4(C)[C@H]3CC[C@]12C [iUDCA, 3β, 7β-dihydroxy-5β-cholanic acid]
Ki (hASBT [6]): 24.7 µM
